Results: US20250042894A1, “PROTEIN TYROSINE PHOSPHATASE INHIBITORS AND METHODS OF USE THEREOF” (Calico Life Sciences LLC, priority 2021, published 2025)
Like-named read-outs stand apart in the source and are kept apart here.

What was measured:
[1] = molecular target: T1, His tagged full-length PTPN1 protein (Homo sapiens, UniProt P18031); experiment: Mobility Shift Assay (MSA) for PTPN1 inhibitors; format: biochemical; settings: enzyme 0.5 nM, substrate 2 μM, 10 minutes preincubation at room temperature
T1 construct: His; made in house
T1 sequence (P18031 1-435): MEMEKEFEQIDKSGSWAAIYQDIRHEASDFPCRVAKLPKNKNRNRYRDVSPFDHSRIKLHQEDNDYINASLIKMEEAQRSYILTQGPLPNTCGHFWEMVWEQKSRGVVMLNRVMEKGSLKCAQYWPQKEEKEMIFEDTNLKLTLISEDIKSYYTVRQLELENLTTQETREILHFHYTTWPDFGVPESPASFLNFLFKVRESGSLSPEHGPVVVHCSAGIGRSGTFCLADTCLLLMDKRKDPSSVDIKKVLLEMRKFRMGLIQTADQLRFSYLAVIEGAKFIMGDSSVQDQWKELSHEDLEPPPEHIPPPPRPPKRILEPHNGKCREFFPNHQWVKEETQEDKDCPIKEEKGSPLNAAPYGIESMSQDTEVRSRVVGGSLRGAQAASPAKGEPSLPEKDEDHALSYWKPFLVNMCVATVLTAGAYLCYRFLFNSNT
Procedure: Example 44: Mobility Shift Assay (MSA) Used to Determine Potency of PTPN1 Inhibitors
Compound activity was determined using in house His tagged full-length PTPN1 protein (SEQ ID NO: 3) in an in vitro enzymatic reaction. The enzymatic assay used to determine activity is a mobility shift assay using a LabChip EZ Reader by Caliper Life Sciences. The enzymatic reaction was carried out in assay buffer (50 mM HEPES pH 7.5, 1 mM EGTA, 10 mM EDTA, 0.010% Tween® 20, and 2 mM DTT). The compounds were dispensed on a white 384 well ProxiPlate™ (PerkinElmer Cat #6008289) plate using a Labcyte Echo® liquid handler at varying concentrations (12 point, 1:3 dilution). The enzyme (at 0.5 nM) was incubated with compound for 10 minutes at room temperature. Thereafter, the substrate (phosphorylated insulin receptor probe sequence: ((OG488)-(NH—CH2—CH2—O—CH2—CH2—O—CH2—CO)-T-R-D-I—(PY)-E-T-D-Y—Y—R—K—K—NH2) (SEQ ID NO: 2) was added at 2 μM to the plates and incubated for another 10 minutes at room temperature. Finally, a quench solution (water and 4-bromo-3-(2-oxo-2-propoxyethoxy)-5-(3-{[1-(phenylmethanesulfonyl)piperidin-4-yl]amino}phenyl)thiophene-2-carboxylic acid) was added to the plates, which were then run on the EZ Reader (excitation 488 nm, emission 530 nm) to measure % conversion (the amount of phosphorylated substrate which was de-phosphorylated by PTPN1). […] The % inhibition was then used to calculate the IC50 values.

[2] = molecular target: T2, His tagged PTPN2 (TC45) protein (Homo sapiens, UniProt P17706); experiment: Mobility Shift Assay (MSA) for PTPN2 inhibitors; format: biochemical; settings: for Thiochromane x-fold>potency biochemical: PTPN2 MSA IC50 of chromane comparator over thiochromane
T2 construct: His; made in house
T2 sequence (P17706 1-387 isoform P17706-2): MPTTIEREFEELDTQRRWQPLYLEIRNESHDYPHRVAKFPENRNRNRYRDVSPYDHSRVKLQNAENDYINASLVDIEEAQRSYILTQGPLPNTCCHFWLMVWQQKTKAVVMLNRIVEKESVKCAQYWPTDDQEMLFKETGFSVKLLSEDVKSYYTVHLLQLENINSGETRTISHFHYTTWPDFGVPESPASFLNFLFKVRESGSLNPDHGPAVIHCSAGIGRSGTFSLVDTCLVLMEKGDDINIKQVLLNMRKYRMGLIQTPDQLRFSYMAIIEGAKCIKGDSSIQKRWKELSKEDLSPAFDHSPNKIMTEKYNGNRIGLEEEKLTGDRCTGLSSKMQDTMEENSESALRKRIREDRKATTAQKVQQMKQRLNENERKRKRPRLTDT
Procedure: Example 43: Mobility Shift Assay (MSA) Used to Determine Potency of PTPN2 Inhibitors
Compound activity was determined using in house His tagged PTPN2 (TC45) protein (SEQ ID NO: 1) in an in vitro enzymatic reaction. The enzymatic assay used to determine activity was a mobility shift assay using a LabChip EZ Reader by Caliper Life Sciences. The enzymatic reaction was carried out in assay buffer (50 mM HEPES pH 7.5, 1 mM EGTA, 10 mM EDTA, 0.01% Tween® 20, and 2 mM DTT). The compounds were dispensed on a white 384 well ProxiPlate™ (PerkinElmer Catalog #6008289) plate using the Labcyte Echo at varying concentrations (12 point, 1:3 dilution). The enzyme (at 0.5 nM) was incubated with compound for 10 minutes at room temperature. Thereafter, the substrate (phosphorylated insulin receptor probe sequence: ((OG488)-(NH—CH2—CH2—O—CH2—CH2—O—CH2—CO)-T-R-D-I—(PY)-E-T-D-Y—Y—R—K—K—NH2) (SEQ ID NO: 2) was added at 2 μM to the plates and incubated for another 10 minutes at room temperature. Finally, a quench solution (water and 4-bromo-3-(2-oxo-2-propoxyethoxy)-5-(3-{[1-(phenylmethanesulfonyl)piperidin-4-yl]amino}phenyl)thiophene-2-carboxylic acid) was added to the plates, which were then run on the EZ Reader (excitation 488 nm, emission 530 nm) to measure % conversion (the amount of phosphorylated substrate which was de-phosphorylated by PTPN2). […] The % inhibition was then used to calculate the IC50 values.

[3] = system: IFNγ-induced STAT1 phosphorylation (pSTAT1) in B16F10 cells; experiment: B16F10 Phospho-STAT1 HTRF proximal pharmacodynamic (PD) assay; format: cell-based, murine; settings: for EC50: B16-F10; for Thiochromane x-fold>potency cellular: pSTAT1 EC50 of chromane comparator over thiochromane
Procedure: Example 45: B16F10 (Murine Melanoma Cells) Phospho-STAT1 HTRF Proximal Pharmacodynamic (PD) Assay
B16F10 cells were grown and maintained in high glucose DMEM (Gibco, Catalog #11965-092, Dun Laoghaire Co Dublin) supplemented with 10% fetal bovine serum (Gibco, Catalog #10082-139, Dun Laoghaire Co Dublin). The cells were pelleted and resuspended in high glucose DMEM without phenol red (Gibco, Catalog #11054-020, Dun Laoghaire Co Dublin), supplemented with 10% fetal bovine serum and plated in a 384 well Corning plate (product #3765, Corning, NY) at 11,000 cells per well in a volume of 20 μL. The cells were dosed with the compounds of interest using an Echo Liquid Handler (Beckman Coulter, Brea, CA) at 50 μM top dose with 3-fold dilutions down to 0.002679 μM for a 10-point dose response. The plate was incubated for 3 hours at 37° C. and subsequently treated with recombinant mouse IFNγ (R&D Systems, Catalog #485-MI, Minneapolis, MN; 100 nM final concentration) for 10 minutes at 37° C. to induce STAT1 phosphorylation followed by 3.3 μM staurosporine treatment for 1 hour at 37° C. to terminate phosphorylation. Media was then aspirated and 20 μL of 1× lysis buffer/blocking reagent (Cisbio Phospho-STAT1 kit, part #63ADK026PEH, Bedford, MA) was added. The plate was placed on a plate shaker for 30 minutes at room temperature, sealed, and stored at −80° C. until needed. To thaw, the plate was placed on shaker at room temperature until completely thawed while the antibody master mix was made (1:40 Phospho-STAT1 Eu Cryptate antibody, 1:40 Phospho-STAT1 d2 antibody, with the detection buffer; Cisbio Phospho-STAT1 kit, part #63ADK026PEH, Bedford, MA). The antibody master mix was then dispensed at 4 μL per well into a 384 ProxiPlate Plus (PerkinElmer, part #6008289, Waltham, MA) and 16 μL of lysate was added from the Corning plate to the Proxiplate using a VIAFLO 384 (INTEGRA). The plate was incubated for 3 hours at room temperature and read on an EnVision® (Perkin Elmer) plate reader with laser excitation at 335 nm and emission at 665 nm. Dotmatics Studies (Bishop's Stortford, UK) was utilized to generate all dose-response curves and calculate EC50s and are shown in Table 2.

[4] = enzyme 0.5 nM, substrate 2 μM, 10 minutes preincubation at room temperature
[5] = Table 2, 3 hours compound, then mouse IFNγ 100 nM 10 minutes, top dose 50 μM, read-out: B16F10 IFNγ Induced pSTAT1 EC50
[6] = Mus musculus, Table 3, B16F10 cells, IFNγ-induced, thiochromanes (X = S) and chromane comparators (X = O), read-out: pSTAT1 EC50

## CC1=C(CCN[C@@H]2CSc3cc(O)c(N4CC(=O)NS4(=O)=O)c(F)c3C2)C(C)(C)CCC1 [Compound 140, 5-[(3S)-5-fluoro-7-hydroxy-3-{[2-(2,6,6-trimethylcyclohex-1-en-1-yl)ethyl]amino}-3,4-dihydro-2H-1-benzothiopyran-6-yl]-1λ^6,2,5-thiadiazolidine-1,1,3-trione]
[1]
  IC50: 10 to 100 nM
[2]; Table 3
  Thiochromane x-fold>potency biochemical: 1.5
[2]; [4]
  IC50: 10 to 100 nM
[3]; [5]
  EC50: 2950 nM
[3]; [6]
  EC50: 2950 nM
[3]; Table 3
  Thiochromane x-fold>potency cellular: >16.9

## O=C1CN(c2c(O)cc3c(c2F)C[C@H](NCCC2CCOCC2)CS3)S(=O)(=O)N1 [Compound 109, 5-[(3S)-5-fluoro-7-hydroxy-3-{[2-(oxan-4-yl)ethyl]amino}-3,4-dihydro-2H-1-benzothiopyran-6-yl]-1λ^6,2,5-thiadiazolidine-1,1,3-trione]
[1]
  IC50: 10 to 100 nM
[2]; Table 3
  Thiochromane x-fold>potency biochemical: 2.0
[2]; [4]
  IC50: < 10 nM
[3]; [5]
  EC50: 6030 nM
[3]; [6]
  EC50: 6030 nM
[3]; Table 3
  Thiochromane x-fold>potency cellular: 5.3

## O=C1CN(c2c(O)cc3c(c2F)C[C@H](NCC2CCOCC2)CS3)S(=O)(=O)N1 [Compound 110, 5-[(3S)-5-fluoro-7-hydroxy-3-{[(oxan-4-yl)methyl]amino}-3,4-dihydro-2H-1-benzothiopyran-6-yl]-1λ^6,2,5-thiadiazolidine-1,1,3-trione]
[1]
  IC50: 10 to 100 nM
[2]; [4]
  IC50: 10 to 100 nM
[3]; [5]
  EC50: 6990 nM

## O=C1CN(c2c(O)cc3c(c2F)C[C@H](NCC2CC(c4ccccc4)C2)CS3)S(=O)(=O)N1 (stereo partly drawn) [Compound 135, 5-[(3S)-5-fluoro-7-hydroxy-3-{[(3-phenylcyclobutyl)methyl]amino}-3,4-dihydro-2H-1-benzothiopyran-6-yl]-1λ^6,2,5-thiadiazolidine-1,1,3-trione]
[1]
  IC50: 10 to 100 nM
[2]; Table 3
  Thiochromane x-fold>potency biochemical: 1.9
[2]; [4]
  IC50: < 10 nM
[3]; [5]
  EC50: 688 nM
[3]; [6]
  EC50: 688 nM
[3]; Table 3
  Thiochromane x-fold>potency cellular: >72.7

## O=C1CN(c2c(O)cc3c(c2F)C[C@H](NCCc2ccccc2)CS3)S(=O)(=O)N1 [Compound 123, 5-{(3S)-5-fluoro-7-hydroxy-3-[(2-phenylethyl)amino]-3,4-dihydro-2H-1-benzothiopyran-6-yl}-1λ^6,2,5-thiadiazolidine-1,1,3-trione]
[1]
  IC50: 10 to 100 nM
[2]; [4]
  IC50: < 10 nM
[3]; [5]
  EC50: 2760 nM

## CCC(C)CCN[C@@H]1CSc2cc(O)c(N3CC(=O)NS3(=O)=O)c(F)c2C1 (stereo partly drawn) [Compound 108, 5-{(3S)-5-fluoro-7-hydroxy-3-[(3-methylpentyl)amino]-3,4-dihydro-2H-1-benzothiopyran-6-yl}-1λ^6,2,5-thiadiazolidine-1,1,3-trione]
[1]
  IC50: < 10 nM
[2]; [4]
  IC50: < 10 nM
[3]; [5]
  EC50: 1760 nM

## CC(C)CCN[C@@H]1CSc2cc(O)c(N3CC(=O)NS3(=O)=O)c(F)c2C1 [Compound 103, 5-{(3S)-5-fluoro-7-hydroxy-3-[(3-methylbutyl)amino]-3,4-dihydro-2H-1-benzothiopyran-6-yl}-1λ^6,2,5-thiadiazolidine-1,1,3-trione]
[1]
  IC50: < 10 nM
[2]; Table 3
  Thiochromane x-fold>potency biochemical: 11.9
[2]; Table 3, thiochromanes (X = S) and chromane comparators (X = O)
  IC50: 1 nM
[2]; [4]
  IC50: < 10 nM
[3]; [5]
  EC50: 528 nM
[3]; [6]
  EC50: 528 nM
[3]; Table 3
  Thiochromane x-fold>potency cellular: 13.2

## O=C1CN(c2c(O)cc3c(c2F)C[C@H](NCCC2CC(F)(F)C2)CS3)S(=O)(=O)N1 [Compound 117, 5-[(3S)-3-{[2-(3,3-difluorocyclobutyl)ethyl]amino}-5-fluoro-7-hydroxy-3,4-dihydro-2H-1-benzothiopyran-6-yl]-1λ^6,2,5-thiadiazolidine-1,1,3-trione]
[1]
  IC50: 10 to 100 nM
[2]; [4]
  IC50: < 10 nM
[3]; [5]
  EC50: 723 nM

## O=C1CN(c2c(O)cc3c(c2F)C[C@H](NCC2CC2(F)F)CS3)S(=O)(=O)N1 (stereo partly drawn) [Compound 126, 5-[(3S)-3-{[(2,2-difluorocyclopropyl)methyl]amino}-5-fluoro-7-hydroxy-3,4-dihydro-2H-1-benzothiopyran-6-yl]-1λ^6,2,5-thiadiazolidine-1,1,3-trione]
[1]
  IC50: 10 to 100 nM
[2]; [4]
  IC50: 10 to 100 nM
[3]; [5]
  EC50: 25500 nM

## O=C1CN(c2c(O)cc3c(c2F)C[C@H](NCCC2CCOC2)CS3)S(=O)(=O)N1 (stereo partly drawn) [Compound 114, 5-[(3S)-5-fluoro-7-hydroxy-3-{[2-(oxolan-3-yl)ethyl]amino}-3,4-dihydro-2H-1-benzothiopyran-6-yl]-1λ^6,2,5-thiadiazolidine-1,1,3-trione]
[1]
  IC50: 10 to 100 nM
[2]; Table 3
  Thiochromane x-fold>potency biochemical: 6.0
[2]; [4]
  IC50: < 10 nM
[3]; [5]
  EC50: 1780 nM
[3]; [6]
  EC50: 1780 nM
[3]; Table 3
  Thiochromane x-fold>potency cellular: 12.7
